Assay results from patent US9708259B2 (Hoffmann-La Roche Inc., priority 2013, dated 2017).
Changes are numbered by the printed parent chain. Where two headings read alike, the source gives them in different places.

Key:
human M1 = target: T1, human M1 (Homo sapiens, UniProt P11229); assay: M1 PAM assay (FLIPR intracellular calcium), human M1; format: cell-based
T1 construct: expressed in transfected cells; host or cells: CHO cells
T1 sequence (P11229 1-460): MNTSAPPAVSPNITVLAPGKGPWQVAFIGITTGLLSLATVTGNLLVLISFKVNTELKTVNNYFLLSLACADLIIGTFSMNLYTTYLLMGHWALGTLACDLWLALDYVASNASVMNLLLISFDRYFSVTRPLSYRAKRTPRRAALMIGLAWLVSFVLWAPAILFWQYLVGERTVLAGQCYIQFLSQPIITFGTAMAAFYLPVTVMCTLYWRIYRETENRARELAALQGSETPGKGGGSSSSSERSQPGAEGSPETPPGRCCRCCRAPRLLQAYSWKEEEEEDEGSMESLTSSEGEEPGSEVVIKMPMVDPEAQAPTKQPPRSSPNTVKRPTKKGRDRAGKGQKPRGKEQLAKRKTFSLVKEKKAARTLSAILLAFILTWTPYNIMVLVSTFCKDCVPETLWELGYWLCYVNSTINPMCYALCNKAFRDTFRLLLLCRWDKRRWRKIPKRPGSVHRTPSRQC
Summary of the method: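 CHO cells expressing M1, Fluo-4AM-loaded, in HEPES/probenecid HBSS pH 7.4, 1% DMSO final. Compounds pre-incubated 2 min for agonist activity versus 30 nM acetylcholine control. For PAM activity, acetylcholine EC20 added after the 2 min pre-incubation, then 2 min more before FLIPR intracellular Ca2+ read.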

ratM1 = target: T2, ratM1 (Rattus norvegicus, UniProt P08482); assay: M1 PAM assay (FLIPR intracellular calcium), rat M1; format: cell-based
T2 construct: expressed in transfected cells; host or cells: CHO cells (stated generally for the assay, not specifically for rat M1)
T2 sequence (P08482 1-460): T1 sequence (P11229 1-460) with A5V, T254S, P309S, R320K, A337G, I413V

[1] = CHO human M1 cells, FLIPR Ca2+, with EC20 of acetylcholine, first value of the cell, read-out: hM1 EC50
[2] = rat M1, FLIPR Ca2+, second value of the cell, read-out: ratM1 EC50

Row | SMILES | EC50 (human M1; [1]) [nM] | EC50 (ratM1; [2]) [nM] | EC50 (human M1) [nM] | EC50 (ratM1) [nM]
1 | Cn1cc(-c2ccc(Cn3nc(C(=O)N[C@H]4CCCC[C@@H]4O)c4c(F)ccc(F)c43)c(F)c2)cn1 [Example 72, 4,7-difluoro-1-(2-fluoro-4-(1-methyl-1H-pyrazol-4-yl)benzyl)-N-((1S,2S)-2-hydroxycyclohexyl)-1H-indazole-3-carboxamide] | 42.8 | 133 | – | –
2 | Cc1ccc(F)c2c(C(=O)NC3CCOCC3)cn(Cc3ccc(-c4cnn(C)c4)cc3F)c12 [Example 133, 4-fluoro-1-(2-fluoro-4-(1-methyl-1H-pyrazol-4-yl)benzyl)-7-methyl-N-(tetrahydro-2H-pyran-4-yl)-1H-indole-3-carboxamide] | 48 | 84 | – | –
3 | Cn1cc(-c2ccc(Cn3cc(C(=O)N[C@H]4CCCC[C@@]4(C)O)c4c(F)cccc43)c(F)c2)cn1 (racemic) [Example 23, 4-fluoro-1-(2-fluoro-4-(1-methyl-1H-pyrazol-4-yl)benzyl)-N-((1SR,2RS)-2-hydroxy-2-methylcyclohexyl)-1H-indole-3-carboxamide] | 14.9 | 25.8 | – | –
4 | Cc1ccn(-c2ccc(Cn3cc(C(=O)N[C@H]4CCCC[C@@H]4O)c4c(F)cccc43)cc2)n1 [Example 50, 4-fluoro-N-((1S,2S)-2-hydroxycyclohexyl)-1-(4-(3-methyl-1H-pyrazol-1-yl)benzyl)-1H-indole-3-carboxamide] | 18.3 | 13.9 | – | –
5 | O=C(N[C@H]1CCOC[C@@H]1O)c1cn(CC2CCN(c3ccccn3)CC2)c2cccc(F)c12 [Example 136, 4-fluoro-N-((3R,4S)-3-hydroxytetrahydro-2H-pyran-4-yl)-1-((1-(pyridin-2-yl)piperidin-4-yl)methyl)-1H-indole-3-carboxamide] | 134 | 428 | – | –
6 | COc1ccc(F)c2c(C(=O)NC3CCOCC3)cn(Cc3ccc4c(cnn4C)c3)c12 [Example 154, 4-fluoro-7-methoxy-1-((1-methyl-1H-indazol-5-yl)methyl)-N-(tetrahydro-2H-pyran-4-yl)-1H-indole-3-carboxamide] | – | – | 272 | 837
7 | Cc1ccc(F)c2c(C(=O)N[C@H]3CCCC[C@@H]3O)cn(Cc3ccc(-c4cnn(C)c4)cc3)c12 [Example 46, 4-fluoro-N-((1S,2S)-2-hydroxycyclohexyl)-7-methyl-1-(4-(1-methyl-1H-pyrazol-4-yl)benzyl)-1H-indole-3-carboxamide] | 10.3 | 22.2 | – | –
8 | CNC(=O)c1ccc(Cn2cc(C(=O)NC)c3c(F)cccc32)cc1 [Example 110, 4-fluoro-N-methyl-1-[[4-(methylcarbamoyl)phenyl]methyl]indole-3-carboxamide] | 141 | 482 | – | –
9 | Cn1cc(-c2ccc(Cn3cc(C(=O)N[C@@H]4CCOC[C@H]4O)c4c(F)cccc43)c(F)c2)cn1 (single isomer, unassigned) [Example 70, 4-Fluoro-1-(2-fluoro-4-(1-methyl-1H-pyrazol-4-yl)benzyl)-N-((3S,4R) or (3R,4S)-3-hydroxytetrahydro-2H-pyran-4-yl)-1H-indole-3-carboxamide] | 102 | 284 | – | –
10 | CNC(=O)c1ccc(Cn2cc(C(=O)NC3CCCCC3F)c3c(F)cccc32)cc1F (centres unmarked) [Example 129, 4-fluoro-1-(3-fluoro-4-(methylcarbamoyl)benzyl)-N-(2-fluorocyclohexyl)-1H-indole-3-carboxamide] | 27 | 66 | – | –
11 | CNC(=O)c1ccc(Cn2cc(C(=O)NC3CCSCC3)c3c(F)cccc32)cc1 [Example 124, 4-fluoro-1-[[4-(methylcarbamoyl)phenyl]methyl]-N-(thian-4-yl)indole-3-carboxamide] | 11 | 24 | – | –
12 | COc1ccc(F)c2c(C(=O)NC3CCOCC3)cn(Cc3ccc(-c4cnn(C)c4)cc3)c12 [Example 151, 4-fluoro-7-methoxy-1-(4-(1-methyl-1H-pyrazol-4-yl)benzyl)-N-(tetrahydro-2H-pyran-4-yl)-1H-indole-3-carboxamide] | 194 | 299 | – | –
13 | NC(=O)Cc1ccc(Cn2cc(C(=O)N[C@H]3CCCC[C@@H]3O)c3c(F)cccc32)cc1 [Example 80, 1-(4-(2-amino-2-oxoethyl)benzyl)-4-fluoro-N-((1S,2S)-2-hydroxycyclohexyl)-1H-indole-3-carboxamide] | 110 | 263 | – | –
14 | Cn1cc(-c2ccc(Cn3cc(CC(=O)N[C@H]4CCCC[C@@H]4O)c4c(F)cccc43)c(F)c2)cn1 [Example 93, 2-(4-fluoro-1-(2-fluoro-4-(1-methyl-1H-pyrazol-4-yl)benzyl)-1H-indol-3-yl)-N-((1S,2S)-2-hydroxycyclohexyl)acetamide] | 191 | 1880 | – | –
15 | Cn1cc(-c2ccc(Cn3cc(C(=O)N[C@H]4CCOC[C@@H]4O)c4c(F)cccc43)c(F)c2)cn1 (single isomer, unassigned) [Example 71, 4-Fluoro-1-(2-fluoro-4-(1-methyl-1H-pyrazol-4-yl)benzyl)-N-((3R,4S) or (3S,4R)-3-hydroxytetrahydro-2H-pyran-4-yl)-1H-indole-3-carboxamide] | 5.92 | 12 | – | –
16 | COc1ccc(Cn2cc(C(=O)N[C@H]3CCCC[C@@H]3O)c3c(F)cccc32)cc1F [Example 33, 4-fluoro-1-(3-fluoro-4-methoxybenzyl)-N-((1S,2S)-2-hydroxycyclohexyl)-1H-indole-3-carboxamide] | – | – | 104 | 222
17 | CNC(=O)c1ccc(Cn2cc(C(=O)N[C@H]3CCCC[C@@H]3O)c3c(F)cccc32)c(F)c1 [Example 86, 4-fluoro-1-(2-fluoro-4-(methylcarbamoyl)benzyl)-N-((1S,2S)-2-hydroxycyclohexyl)-1H-indole-3-carboxamide] | 6.91 | 13 | – | –
18 | Cn1cc(-c2ccc(Cn3cc(C(=O)NC[C@H]4CCCO4)c4c(F)cccc43)cc2)cn1 [Example 10, (R)-4-fluoro-1-(4-(1-methyl-1H-pyrazol-4-yl)benzyl)-N-((tetrahydrofuran-2-yl)methyl)-1H-indole-3-carboxamide] | 256 | 398 | – | –
19 | O=C(N[C@H]1CCCC[C@@H]1O)c1cn(Cc2ccc(-c3ccn[nH]3)cc2)c2cccc(F)c12 [Example 155, 1-(4-(1H-Pyrazol-5-yl)benzyl)-4-fluoro-N-((1S,2S)-2-hydroxycyclohexyl)-1H-indole-3-carboxamide] | 11 | 5 | – | –
20 | O=C(N[C@H]1CCCC[C@@H]1O)c1cn(Cc2cc(F)cc(F)c2)c2cccc(F)c12 [Example 43, 1-(3,5-difluorobenzyl)-4-fluoro-N-((1S,2S)-2-hydroxycyclohexyl)-1H-indole-3-carboxamide] | – | – | 488 | 632
21 | CNC(=O)c1ccc(Cn2cc(C(=O)NC3CCS(=O)(=O)CC3)c3c(F)cccc32)cc1 [Example 125, N-(1,1-dioxothian-4-yl)-4-fluoro-1-[[4-(methylcarbamoyl)phenyl]methyl]indole-3-carboxamide] | 166 | 623 | – | –
22 | CNC(=O)c1ccc(Cn2cc(C(=O)NC3CCCCC3F)c3c(F)cccc32)cc1 (centres unmarked) [Example 121, 4-fluoro-N-(2-fluorocyclohexyl)-1-[[4-(methylcarbamoyl)phenyl]methyl]indole-3-carboxamide] | 6 | 17 | – | –
23 | Cn1cc(-c2ccc(Cn3cc(C(=O)N[C@H]4CCCC[C@@H]4O)c4c(F)cccc43)cn2)cn1 [Example 30, 4-fluoro-N-((1S,2S)-2-hydroxycyclohexyl)-1-((6-(1-methyl-1H-pyrazol-4-yl)pyridine-3-yl)methyl)-1H-indole-3-carboxamide] | 13.2 | 14.1 | – | –
24 | O=C(N[C@H]1CCCC[C@@H]1O)c1cn(Cc2ccc(-c3nccs3)cn2)c2cccc(F)c12 [Example 141, 4-fluoro-N-((1S,2S)-2-hydroxycyclohexyl)-1-((5-(thiazol-2-yl)pyridin-2-yl)methyl)-1H-indole-3-carboxamide] | 155 | 453 | – | –
25 | O=C(N[C@H]1CCCC[C@@H]1O)c1cn(Cc2ccc(-c3cccnc3)cc2)c2cccc(F)c12 [Example 159, 4-Fluoro-N-((1S,2S)-2-hydroxycyclohexyl)-1-(4-(pyridin-3-yl)benzyl)-1H-indole-3-carboxamide] | 20 | 47 | – | –
